From patent publication US12383628B2 (priority 2016, dated 2025)
Square brackets hold non-standard residues; d marks the D form. Peptide text beside a SMILES is read from it. Dmt = Cc1cc(O)cc(C)c1C[C@H](N)C(=O)O

Tests used:
Male CD1 mice = test: Radiant heat tail-flick test of biogel compositions s.c. (in solution or as a gel); format: in vivo, mouse; conditions: injection volume of 150 μl
Protocol: Male CD1 mice (6-8 weeks old, body weight average 30 g) were obtained from Charles River (Sulzfeld, Germany). Mice were group-housed in a temperature controlled room with a 12 h light/dark cycle and with free access to food and water. All animal studies were conducted in accordance with ethical guidelines and animal welfare standards according to Austrian regulations for animal research, and were approved by the Committee of Animal Care of the Austrian Federal Ministry of Science and Research. […]
The radiant heat tail-flick test was used to assess antinociceptive effects of tested drugs after s.c. administration in mice using an UB 37360 Ugo Basile analgesiometer (Ugo Basile s.r.l., Varese, Italy) as described previously (A. Novoa et al., 2012). The reaction time required by the mouse to remove its tail due to the radiant heat was measured and defined as the tail-flick latency. […] The antinociceptive response was expressed as percent of Maximum Possible Effect (% MPE)=[(TL-BL)/(cut-off time-BL)]×100. Data were analyzed with ANOVA using Tukey's multiple comparison test, and graphically processed with the GraphPad Prism Software (GraphPad Software Inc., San Diego, CA). […]

[1] = Stability and degradability of biogels in human plasma (Example 8); format: in vitro ADME; conditions: human plasma, 37° C.
Protocol: After centrifugation at 14 000 rpm for 15 minutes, 100 μL supernatant was diluted with 100 μL milliQ water in the injection vial. Injection samples were vortexed for 5 seconds and were analyzed by HPLC. […] Calculations were performed using Microsoft® Office Professional 2010 Excel.

[2] = Peptide gelation (tilted tube / inverted vial test, minimum gelation concentration); format: physicochemical; conditions: in PBS; '/' = no gel
How it was run: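 TFA salt of peptide dissolved (1 or 2 mg per 100 μL) in PBS pH 7.4 or 0.9% NaCl saline, vortexed and sonicated, then left overnight at room temperature. Gelation judged by inverted vial test: no gravitational flow means gel. Rheology by dynamic rheometry at 37° C (G′, G″, tan δ).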

[3] = TEM / cryo-TEM fibre morphology of hydrogels; format: physicochemical; conditions: cryoTEM and negative staining, Example 9
Protocol: Formvar carbon-coated 400-mesh copper grids (Agar Scientific, Stansted, United Kingdom) were treated with plasma using an ELMO Glow discharge system to clean the grid surface and to render the carbon surface hydrophilic. Hydrogel samples were prepared 12 h in advance as described above. Small aliquots of sample (5 μL) were pipetted onto the carbon grids for adsorption. After 30 s, excess of sample was removed by using a Whatman 541 filter paper. The loaded grids were stained during 10 s with 1% uranyl formate after which the grids were air-dried. Samples were analysed using a JEOL JEM-1400 transmission electron microscope, operating at accelerating voltage of 120 kV. Images were recorded on a CMOS TemCam-F416 camera and accessory software of TVIPS.
200-mesh copper grids coated with perforated carbon film (Lacey carbon film: ProSci-Tech Old, Australia) were used and were glow discharged in nitrogen for 5 s immediately prior to use. Hydrogel samples were prepared 12 h in advance as described above. Small aliquots of sample (4 μL) were pipetted onto the carbon grids for adsorption. After 30 s, excess of sample was removed by using a Whatman 541 filter paper. The grid was then plunged into liquid ethane cooled by liquid nitrogen. Frozen grids were stored in liquid nitrogen until required. Samples were analysed using a Gatan 626 cryoholder and Tecnai 12 Transmission electron microscope, operating at accelerating voltage of 120 kV. Images were recorded using an FEI Eagle 4k×4k CCD camera.

[4] = 37° C., 9 μM
Protocol: Human plasma was obtained from the Belgian Red Cross (Vlaams-Brabant, Leuven). Prior to the stability test, selectivity, stability of the compound in the injection solvent, linearity, accuracy and precision of the method were investigated. Frozen (−20° C.) human plasma samples were thawed and thermostated to 37±2° C. Dissolution of the lyophilized peptide and consecutive dilutions were performed in water. The resulting aqueous solutions of each peptide individually was spiked in human plasma (10:90 v/v) with final plasma concentrations of 9 μM.
On every time point 100 μL spiked plasma was transferred to a 500 μL Eppendorf tube and a protein crash was performed using the corresponding precipitation solvent (4° C.). Suspensions were vortexed for 15 s and placed at 4° C. for 30 to 45 min. After centrifugation at 18 625 g for 20 min, 100 μL supernatant was diluted with 100 μL water in the injection vial.
Injection samples were vortexed for 5 sand placed in the autosampler. […] Concentrations were calculated by use of the calibration curve and transferred to a semi-log chart presenting the log concentrations as a function of time. The optimum curve was used to calculate the peptide half-life. Calculations were performed using Microsoft® Office Professional 2010 Excel.

| SMILES | Release profile as biogel in tail-flick test (Male CD1 mice) | Time at which degradation of the heptapeptide into the N-terminal pentapeptide started [1] [min] | Time at which degradation of the pentapeptide into tripeptide was observed [1] [min] | Time of appearance of the heptapeptide (loss of Phe-Lys-NH2) [1] [min] | half-life at 14 μM ([1]; human, in solution, 14 μM) [min] | Minimum gelation concentration (w/v % in PBS) [2] [w/v %] | Fibre diameter [3] [nm] | Stability in human plasma [4] |
| --- | --- | --- | --- | --- | --- | --- | --- | --- |
| Cc1cc(O)cc(C)c1C[C@H](N)C(=O)N[C@H](CCCNC(=N)N)C(=O)N[C@@H](Cc1ccccc1)C(=O)N[C@@H](Cc1ccccc1)C(=O)N[C@@H](CCC(N)=O)C(=O)N[C@@H](Cc1ccccc1)C(=O)N[C@@H](CCC(N)=O)C(=O)N[C@@H](Cc1ccccc1)C(=O)N[C@@H](CCCCN)C(N)=O [CM-57, Dmt-DArg-Phe-Phe-Gln-Phe*-Gln-Phe-Lys-NH2] (H-[Dmt][dR]FFQFQFK-NH2; N-terminus assumed) | showed the desired sustained release curve | 7.5 | 60 | 2.5 | ~17 |  |  |  |
| NCCCC[C@@H](N)C(=O)N[C@H](Cc1ccccc1)C(=O)N[C@H](CCC(N)=O)C(=O)N[C@H](Cc1ccccc1)C(=O)N[C@H](CCC(=O)O)C(=O)N[C@H](Cc1ccccc1)C(N)=O [peptide 24, H-DLys-DPhe-DGln-DPhe*-DGlu-DPhe-NH2] (H-[dK][dF][dQ][dF][dE][dF]-NH2) |  |  |  |  |  | 2 | ~5 | remains intact after 25 h of incubation |
